# According to US20240150377A1, “MODULATORS OF CYSTIC FIBROSIS TRANSMEMBRANE CONDUCTANCE REGULATOR” (VERTEX PHARMACEUTICALS INCORPORATED, priority 2020, published 2024):
# Like-named read-outs stand apart in the source and are kept apart here.
# Target: T1, CFTR (Homo sapiens, UniProt P13569, DEL508-508)
# T1 construct: endogenous in cells; host or cells: primary human bronchial epithelial cells from CF subjects (F508del/MF-HBE), differentiated at air-liquid interface
# Assay: HBE assay: Ussing chamber assay of CFTR-mediated short-circuit currents
# Type: cell-based
# Conditions: for EC50: read-out: HBE EC50; for activation at 10 µM: read-out: HBE Activity at 10 μM (%)
# In short: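 CFTR-mediated Isc (μA/cm²) equals the peak response to apical 20 μM forskolin minus the residual after a 20 μM each BPO/GlyH-101/CFTR inhibitor 172 cocktail, recorded in Ussing chambers at Vhold 0 mV, 37 °C, pH 7.4, with 30 μM apical amiloride. Cells were F508del/MF HBE cultures preincubated 18-24 h with corrector (concentration range or 10 μM) plus 1 μM ivacaftor in 20% human serum.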
# [1] = Table 13, read-out: HBE Max Activity (%)
# [2] = HBE assay, read-out: HBE Max activity (%)
# T1 sequence (P13569 with tags, fused parts or gaps DEL508-508): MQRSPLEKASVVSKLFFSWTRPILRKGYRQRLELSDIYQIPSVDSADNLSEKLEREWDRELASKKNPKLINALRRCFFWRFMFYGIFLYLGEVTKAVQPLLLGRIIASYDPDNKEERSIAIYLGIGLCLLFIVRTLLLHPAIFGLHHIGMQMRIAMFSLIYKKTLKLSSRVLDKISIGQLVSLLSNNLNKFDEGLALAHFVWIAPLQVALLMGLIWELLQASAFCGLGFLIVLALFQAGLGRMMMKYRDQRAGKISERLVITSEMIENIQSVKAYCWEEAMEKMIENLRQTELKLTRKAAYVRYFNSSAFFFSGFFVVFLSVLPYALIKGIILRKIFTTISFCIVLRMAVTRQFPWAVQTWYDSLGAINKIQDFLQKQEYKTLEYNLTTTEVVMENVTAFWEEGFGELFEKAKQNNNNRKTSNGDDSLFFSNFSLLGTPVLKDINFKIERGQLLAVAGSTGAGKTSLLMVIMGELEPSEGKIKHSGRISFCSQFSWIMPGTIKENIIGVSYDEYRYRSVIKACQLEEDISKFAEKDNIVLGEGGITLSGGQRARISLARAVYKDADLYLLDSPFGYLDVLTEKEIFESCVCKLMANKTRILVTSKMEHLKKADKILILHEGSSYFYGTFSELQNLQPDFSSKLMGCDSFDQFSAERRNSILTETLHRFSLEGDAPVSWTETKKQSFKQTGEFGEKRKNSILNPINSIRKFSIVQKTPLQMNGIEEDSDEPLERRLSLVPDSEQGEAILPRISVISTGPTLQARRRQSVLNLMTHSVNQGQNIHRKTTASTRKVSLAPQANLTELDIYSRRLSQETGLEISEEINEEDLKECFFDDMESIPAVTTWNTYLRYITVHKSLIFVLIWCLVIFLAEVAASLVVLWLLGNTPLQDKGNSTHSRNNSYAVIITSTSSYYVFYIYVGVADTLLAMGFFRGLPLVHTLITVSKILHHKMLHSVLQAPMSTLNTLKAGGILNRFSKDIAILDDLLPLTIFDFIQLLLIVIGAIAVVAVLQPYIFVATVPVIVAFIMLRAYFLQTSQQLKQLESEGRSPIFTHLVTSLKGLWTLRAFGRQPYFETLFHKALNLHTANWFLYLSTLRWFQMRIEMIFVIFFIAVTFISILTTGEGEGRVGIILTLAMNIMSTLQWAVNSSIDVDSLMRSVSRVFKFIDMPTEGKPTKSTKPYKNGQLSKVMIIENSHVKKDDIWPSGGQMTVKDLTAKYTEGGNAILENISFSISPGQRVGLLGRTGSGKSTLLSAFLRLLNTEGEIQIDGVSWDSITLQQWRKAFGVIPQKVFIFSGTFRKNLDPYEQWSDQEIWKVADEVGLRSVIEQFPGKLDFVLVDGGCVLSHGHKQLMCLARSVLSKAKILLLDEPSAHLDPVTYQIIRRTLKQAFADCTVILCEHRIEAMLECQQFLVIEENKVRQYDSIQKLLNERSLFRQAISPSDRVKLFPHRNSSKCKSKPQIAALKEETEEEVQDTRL
Compound,EC50 (Table 13),Emax [1],EC50 (HBE assay),Emax [2],activation at 10 µM (HBE assay)
CCCCN(c1cccc(CN2C(=O)c3cccc(c3)S(=O)(=O)Nc3nc(cc(-c4c(C)cccc4C)n3)OC[C@H]2CC(C)(C)C)n1)C(C)C [Compound 1137],< 1000 nM,> 60%,,,
Cc1cccc(C)c1-c1cc2nc(n1)NS(=O)(=O)c1cccc(c1)C(=O)N(Cc1cccc(C(=O)N3CCC(C)(C)C3)n1)[C@H](CC(C)(C)C)CO2 [Compound 1138],< 1000 nM,> 60%,,,
Cc1cccc(C)c1-c1cc2nc(n1)NS(=O)(=O)c1cccc(c1)C(=O)N(Cc1ncc(N3CCC(C)(C)CC3)cc1C(F)(F)F)[C@H](CC(C)(C)C)CO2 [Compound 1139],1000 to 3000 nM,> 60%,,,
Cc1ccc(N(C)C2CC3(CC3)C2)nc1CN1C(=O)c2cccc(c2)S(=O)(=O)Nc2nc(cc(-c3c(C)cccc3C)n2)OC[C@H]1CC(C)(C)C [Compound 1140],< 1000 nM,> 60%,,,
Cc1cccc(C)c1-c1cc2nc(n1)NS(=O)(=O)c1cccc(n1)C(=O)N(Cc1ncc(N3CCC(C)(C)C3=O)cn1)[C@H](CC(C)(C)C)CO2 [Compound 1141],< 1000 nM,> 60%,,,
COCCN(c1cccc(CN2C(=O)c3cccc(n3)S(=O)(=O)Nc3nc(cc(-c4c(C)cccc4C)n3)OC[C@H]2CC(C)(C)C)n1)C(C)C [Compound 1142],1000 to 3000 nM,> 60%,,,
Cc1cccc(C)c1-c1cc2nc(n1)NS(=O)(=O)c1cccc(n1)C(=O)N(Cc1cccc(N(C)C3CC4(CC4)C3)n1)[C@H](CC(C)(C)C)CO2 [Compound 1143],< 1000 nM,> 60%,,,
Cc1cccc(C)c1-c1cc2nc(n1)NS(=O)(=O)c1cccc(n1)C(=O)N(Cc1cccc(NCC(C)(C)C)n1)[C@H](CC(C)(C)C)CO2 [Compound 1144],< 1000 nM,> 60%,,,
Cc1cccc(C)c1-c1cc2nc(n1)NS(=O)(=O)c1cccc(c1)C(=O)N(Cc1ncc(N3CC(C)(C)OC(C)(C)C3)cn1)[C@H](CC(C)(C)C)CO2 [Compound 1145],< 1000 nM,> 60%,,,
Cc1cccc(C)c1-c1cc2nc(n1)NS(=O)(=O)c1cccc(c1)C(=O)N(Cc1ncc(N3CCOC4(CCC4)C3)cn1)[C@H](CC(C)(C)C)CO2 [Compound 1146],< 1000 nM,> 60%,,,
Cc1cccc(C)c1-c1cc2nc(n1)NS(=O)(=O)c1cccc(c1)C(=O)N(Cc1ncc(N3CCSCC3)cn1)[C@H](CC(C)(C)C)CO2 [Compound 1147],< 1000 nM,> 60%,,,
Cc1cccc(C)c1-c1cc2nc(n1)NS(=O)(=O)c1cccc(c1)C(=O)N(Cc1ncc(N3CCOC4(CC4)C3)cn1)[C@H](CC(C)(C)C)CO2 [Compound 1148],< 1000 nM,> 60%,,,
Cc1cccc(C)c1-c1cc2nc(n1)NS(=O)(=O)c1cccc(c1)C(=O)N(Cc1ccc([C@@H](O)CO)cn1)[C@H](CC(C)(C)C)CO2 [Compound 1150],< 1000 nM,,,,
Cc1cccc(C)c1-c1cc2nc(n1)NS(=O)(=O)c1cccc(c1)C(=O)N(Cc1ccc([C@@H](O)CO)cn1)[C@H](CC(C)(C)C)CO2 [Compound 1151],1000 to 3000 nM,> 60%,,,
Cc1cccc(C)c1-c1cc2nc(n1)NS(=O)(=O)c1cccc(c1)C(=O)N(Cc1ncc([C@@H](O)CO)cn1)[C@H](CC(C)(C)C)CO2 [Compound 1152],< 1000 nM,,,,
Cc1cccc(C)c1-c1cc2nc(n1)NS(=O)(=O)c1cccc(c1)C(=O)N(Cc1ncc([C@@H](O)CO)cn1)[C@H](CC(C)(C)C)CO2 [Compound 1153],1000 to 3000 nM,> 60%,,,
Cc1cccc(C)c1-c1cc2nc(n1)NS(=O)(=O)c1cccc(c1)C(=O)N(Cc1ccc3c(n1)N1CCOCC1C(C)C3)[C@H](CC(C)(C)C)CO2 (stereo partly drawn) [Compound 1154],< 1000 nM,> 60%,,,
Cc1cccc(C)c1-c1cc2nc(n1)NS(=O)(=O)c1cccc(c1)C(=O)N(Cc1nccc(N(C)CC(C)(C)C)c1F)[C@H](CC(C)(C)C)CO2 [Compound 1155],1000 to 3000 nM,> 60%,,,
Cc1cccc(C)c1-c1cc2nc(n1)NS(=O)(=O)c1cccc(c1)C(=O)N(Cc1ncc(N3CCOC(C)(C)C3)cn1)[C@H](CC(C)(C)C)CO2 [Compound 1156],< 1000 nM,> 60%,,,
"Cc1cccc(C)c1-c1cc2nc(n1)NS(=O)(=O)c1cccc(c1)C(=O)N(Cc1ncc(OC3CCC3)cc1F)[C@H](CC(C)(C)C)CO2 [Compound 1299, (11R)-12-[[5-(Cyclobutoxy)-3-fluoro-2-pyridyl]methyl]-6-(2,6-dimethylphenyl)-11-(2,2-dimethylpropyl)-2,2-dioxo-9-oxa-2λ^6-thia-3,5,12,19-tetrazatricyclo[12.3.1.14,8]nonadeca-1(18),4(19),5,7,14,16-hexaen-13-one]",,,< 1000 nM,> 60%,
"Cc1cccc(C)c1-c1cc2nc(n1)NS(=O)(=O)c1cccc(c1)C(=O)N(Cc1nc(N(C)C3CC4(CC4)C3)ccc1F)[C@H](CC(C)(C)C)CO2 [Compound 1300, (11R)-6-(2,6-Dimethylphenyl)-11-(2,2-dimethylpropyl)-12-[[3-fluoro-6-[methyl(spiro[2.3]hexan-5-yl)amino]-2-pyridyl]methyl]-2,2-dioxo-9-oxa-2λ^6-thia-3,5,12,19-tetrazatricyclo[12.3.1.14,8]nonadeca-1(18),4(19),5,7,14,16-hexaen-13-one]",,,< 1000 nM,> 60%,
"Cc1cccc(C)c1-c1cc2nc(n1)NS(=O)(=O)c1cccc(c1)C(=O)N(Cc1ncc(O[C@@H](C)C(C)C)cn1)[C@H](CC(C)(C)C)CO2 [Compound 1301, (11R)-6-(2,6-Dimethylphenyl)-12-[[5-[(1S)-1,2-dimethylpropoxy]pyrimidin-2-yl]methyl]-11-(2,2-dimethylpropyl)-2,2-dioxo-9-oxa-2λ^6-thia-3,5,12,19-tetrazatricyclo[12.3.1.14,8]nonadeca-1(18),4(19),5,7,14,16-hexaen-13-one]",,,< 1000 nM,> 60%,
"Cc1cccc(C)c1-c1cc2nc(n1)NS(=O)(=O)c1cccc(c1)C(=O)N(Cc1ccc3c(C4CC4)cn(C)c3n1)[C@H](CC(C)(C)C)CO2 [Compound 1303, (11R)-12-[(3-Cyclopropyl-1-methyl-pyrrolo[2,3-b]pyridin-6-yl)methyl]-6-(2,6-dimethylphenyl)-11-(2,2-dimethylpropyl)-2,2-dioxo-9-oxa-2λ^6-thia-3,5,12,19-tetrazatricyclo[12.3.1.14,8]nonadeca-1(18),4(19),5,7,14,16-hexaen-13-one]",,,,,> 60%
"Cc1cccc(C)c1-c1cc2nc(n1)NS(=O)(=O)c1cccc(c1)C(=O)N(Cc1ncc(OC(C)C)cn1)[C@H](CC(C)(C)F)CO2 [Compound 1308, (11R)-6-(2,6-Dimethylphenyl)-11-(2-fluoro-2-methyl-propyl)-12-[(5-isopropoxypyrimidin-2-yl)methyl]-2,2-dioxo-9-oxa-2λ^6-thia-3,5,12,19-tetrazatricyclo[12.3.1.14,8]nonadeca-1(18),4(19),5,7,14,16-hexaen-13-one]",,,,,> 60%
"Cc1cccc(C)c1-c1cc2nc(n1)NS(=O)(=O)c1cccc(c1)C(=O)N(Cc1ncc(N3CC(C)(C)C3)cn1)[C@H](CCC(C)C)CO2 [Compound 1309, (11R)-12-[[5-(3,3-Dimethylazetidin-1-yl)pyrimidin-2-yl]methyl]-6-(2,6-dimethylphenyl)-11-isopentyl-2,2-dioxo-9-oxa-2λ^6-thia-3,5,12,19-tetrazatricyclo[12.3.1.14,8]nonadeca-1(18),4(19),5,7,14,16-hexaen-13-one]",,,,,> 60%
